# Where two headings read alike, the source gives them in different places.
# What was measured:
# [1] = tested on: mouse LINE-1; assay: Mouse LINE-1 retrotransposition assay (dual luciferase pYX016 reporter, HeLa cells); assay type: cell-based
# Protocol: Elvucitabine was obtained by custom synthesis. […] HeLa cervical cancer cells were cultivated at 37° C. in a humidified 5% CO2 incubator in Dulbecco's Modified Eagle's Medium (DMEM)-high glucose, with 4500 mg/L glucose, L-glutamine, sodium pyruvate and sodium bicarbonate (Sigma), supplemented with 10% of heat inactivated fetal bovine serum (Thermo Fisher). Assays were performed as described in Xie et al., 2011^151 with several modifications. The reporter assay was performed in 96 well white Optical bottom plates. 6000 HeLa cells were seeded in each well 24 hours prior transfection and compound treatment. All compounds were resuspended in DMSO. Stock solution concentrations varied from 50 mM to 1.25 mM depending of the solubility of the compound. Serial dilutions (1:3) were prepared in DMSO. Ten different concentrations of each compound were tested in triplicate. Medium containing different concentrations of the compounds were prepared by adding 2 μL of the compound dilution to 1 mL of the culture medium. The final concentration of DMSO in the medium was 0.2%. FuGENE® HD transfection reagent (Promega) was used to transfect the plasmid pYX016 into the cells. The transfection mix was prepared in OpiMEM (Thermo Fisher) using a reagent to DNA ratio of 3.5:1 according to manufacturer's instructions. Culture medium was removed from the cells and discarded. The transfection mix (5 μL) was mixed with the compound containing medium (100 μL/well) and this was added onto the cells of each well. Cells were incubated for 48H at 37° C./5% CO2. Luciferase reporter activity was quantified with the Dual-Luciferase® Reporter Assay System (Promega) according to manufacturer's instructions for multiwell plates with the following modification: Cells were lysed directly on the multiwell plate with 30 μL of the passive lysis buffer (PLB) for 20 min at room temperature, with gentle shaking to ensure complete cell lysis (instead of 20 μL of PLB for 15 min). Firefly and Renilla luciferase signals were measured using a SpectraMax i3x Multi-Mode Microplate Reader. […] Relative L1 activity was calculated as Firefly/Renilla *10,000. […] The experiment was performed twice, independently.
# [2] = tested on: IFN-I response; assay: IFN-I response in senescent and 3X human fibroblasts (RT-qPCR, ELISA, immunoblotting); assay type: cell-based
# Text: To obtain replicatively senescent (RS) cells, LF1 cultures were serially propagated until proliferation ceased. At each passage, after reaching 80% confluence cells were trypsinized and diluted 1:4. […] In early passage cultures, the time between passages is constant at approximately 3 days. […] At this point, after reaching 80% confluence, the cells were replated at 1:2 dilution, and this time was designated as the last passage (point A in FIG. 2A). […] Under this experimental regimen, the majority of the cells in the culture enter senescence within a 3-4 weeks window centered roughly around the time of last passage (grey bar in FIG. 2A). At point B (4 weeks), the cultures were trypsinized and replated as described^60 to eliminate a small fraction of persisting contact-inhibited cells. Cultures were again replated at point C (8 weeks).
# Oncogene-induced senescence (OIS) was elicited by infecting proliferating LF1 cells with pLenti CMV RasV12 Neo (Addgene plasmid #22259). Generation of lentiviral particles and the infection procedure are described below. At the end of the infection, cells were reseeded at 15-20% confluency and selected with G418 (250 μg/ml) maintained continuously until the end of the experiment Medium was changed every 3 days until the cultures were harvested at the indicated time points. Stress-induced premature senescence (SIPS) was elicited by […] irradiation with 20 Gy given at a rate of 87 cGy/min in one fraction using a cesium-137 gamma source (Nordion Gammacell 40). Cells were 15-20% confluent at the time of irradiation. Medium was changed immediately after irradiation, and at 3-day intervals thereafter. […]
# The ABI ViiA 7 instrument (Applied Biosystems) was used for all experiments. qPCR of DNA was performed using the TaqMan system (Applied Biosystems) as described by Coufal et al. (2009).^64 […] of purified genomic DNA was used with the indicated primers (see Table 1). […] Effectiveness of the DNase digestion was assessed using controls that omitted the RT enzyme. […]
# [3] = pYX016, 48 H post-transfection, read-out: Mouse L1 activity inhibition IC50, Exp. 1
# [4] = pYX016, 48 H post-transfection, read-out: Mouse L1 activity inhibition IC50, Exp. 2
# [5] = pYX016, 48 H, n = 2, read-out: Mouse L1 activity inhibition IC50, Average
Structure (SMILES),"IC50 [1, 3] [nM]","IC50 [1, 4] [nM]","IC50 [1, 5] [nM]","interferon gene expression (IFN-α, IFN-β1) ([2]; LF1, 50 μM, drug for 1 month from 3 months in senescence)",concentration range that optimally inhibited the IFN-I response ([2]; senescent cells) [µM]
Nc1nc(=O)n([C@@H]2CS[C@H](CO)O2)cc1F [Emtricitabine],640,451,546,decreased the expression of interferons,
Nc1ccn([C@@H]2CS[C@H](CO)O2)c(=O)n1 [Lamivudine],958,780,869,,7.5 to 10

# — patent publication US12246022B2, “Compositions and methods for treating, preventing or reversing age associated inflammation and disorders” (BROWN UNIVERSITY, priority 2019, dated 2025)
